From article PMC6383986, “Fragment-Based Covalent Ligand Screening Enables Rapid Discovery of Inhibitors for the RBR E3 Ubiquitin Ligase HOIP” (Journal of the American Chemical Society, 2019)
“Also recorded” adds a separate entry of the source.

Legend:
[1] = molecular target: T1, 3 × FLAG-tagged HOIP RBR from HEK293T cells (Homo sapiens, UniProt Q96EP0); experiment: Immunoprecipitation and on-bead polyubiquitination assay after in-cell labeling; type: cell-based; details: 30 μM, E1, UbcH7, ubiquitin
T1 construct: expressed in transfected cells; host or cells: HEK293T, transient, modified pcDNA3.1(+)
Experimental: Supplementary Figure S12. A) Uncropped SDS gel and B) and Western Blot (FLAG antibody, 1:1000 dilution) from the immunoprecipitation (IP) of 3×FLAG HOIP RBR from HEK293T cells.
The cells had been incubated with compounds (11a) or (11i) [30 µM], or DMSO for 8 h. C) TIC traces for DMSO control, (11a)- and (11i)-treated HEK293T cell lysate after IP and tryptic digest.
D) Extracted TIC traces for the tryptic peptide […], accounting for possible cysteine labelling (iodoacetamide, (11a) or (11i)) and methionine oxidation.
Immunoprecipitation and Polyubiquitination assay
The protein concentrations of the clarified lysates were normalized with reaction buffer (50 mM Tris-HCl, pH 7.5, 1.5 mM MgCl2, 150 mM NaCl, 1 mM Na3VO4, complete protease inhibitor) to 1.5 mg/mL (final volume 500 µL, and <0.1% IGEPAL-CA630). Magnetic beads containing anti-FLAG M2 antibody (20 µL suspension per vial; Merck) were immobilized using a magnetic stand (GE Healthcare), washed with PBS (2 × 0.5 mL) and reaction buffer (2 × 0.5 mL) and then suspended in the lysate mixtures. Beads without lysate was used as control. The bead […]
A polyubiquitination assay master mix was prepared by mixing E1, UbcH7, ubiquitin, MgCl2, in buffer (50 mM HEPES, 150 mM NaCl, pH 7.5). […] All samples were analyzed by SDS PAGE and Western Blot (Figure 6C and Supplementary Figure S13) as described in sections 4.5 and 4.6. […]

[2] = tested on: NF-κB activation in HEK293T cells overexpressing full length HOIP, HOIL-1L, and SHARPIN; experiment: NF-κB Luciferase reporter assay; type: cell-based; details: Homo sapiens, HEK-293T; overnight (17 h) treatment; estimated; read-out: IC50, inhibition of NF-κB activation
Experimental: suspensions were agitated at 4 °C overnight. The supernatants were removed and kept on ice, and the beads were washed with wash buffer (2 × 0.5 mL), PBS (2 × 0.5 mL), and 50 mM HEPES, 150 mM NaCl, pH 7.5 buffer (2 × 0.5 mL).
A polyubiquitination assay master mix was prepared by mixing E1, UbcH7, ubiquitin, MgCl2, in buffer (50 mM HEPES, 150 mM NaCl, pH 7.5). The solution (30 µL per sample) was added to the beads, and lastly ATP (0.6 µL of 100 mM stock) was added to initiate the reaction. Final concentrations were E1 (0.2 µM), UbcH7 E2 (1 µM), ubiquitin (10 µM), MgCl2 (4 mM), ATP (2 mM). The vials were incubated (Eppendorf Thermomixer) at 25 °C, 900 rpm for 1.5 h. […] All samples were analyzed by SDS PAGE and Western Blot (Figure 6C and Supplementary Figure S13) as described in sections 4.5 and 4.6. […]
Reporter assays: After incubating the plates for 17 h, Firefly and Renilla Luciferase activity was analyzed using the Dual-Luciferase® Reporter Assay System (Promega) and a BertholdTech […]
with Mikrowin 2000 software version 4.41: using its injectors to inject 100 µL LAR II and 100 µL Stop&Glo (see manufacturer’s instructions; Promega #E1960). NF-κB regulated luciferase activity was first normalized to Renilla luciferase activity and then the fold activation relative to cells transfected with empty vector calculated. […]
reader. […]

T1 sequence (Q96EP0 697-1072): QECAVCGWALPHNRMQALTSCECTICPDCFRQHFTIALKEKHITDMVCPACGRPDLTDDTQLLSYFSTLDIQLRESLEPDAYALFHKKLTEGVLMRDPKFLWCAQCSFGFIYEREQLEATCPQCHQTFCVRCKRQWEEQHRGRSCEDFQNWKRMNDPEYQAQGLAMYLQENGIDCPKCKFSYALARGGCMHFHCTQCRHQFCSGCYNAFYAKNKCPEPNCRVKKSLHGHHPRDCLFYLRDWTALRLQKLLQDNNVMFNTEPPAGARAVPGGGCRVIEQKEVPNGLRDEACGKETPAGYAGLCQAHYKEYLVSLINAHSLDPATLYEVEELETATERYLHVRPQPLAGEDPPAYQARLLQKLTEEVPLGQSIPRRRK

For `COC(=O)/C=C/CNC(=O)c1cc2c([nH]c1=O)CCCC2` [Compound 11a], the “catalytic activity of HOIP (free polyubiquitin chain formation) after in-cell labeling” value [1] was “significant loss of the catalytic activity; also recorded: significant decrease in free polyubiquitin chain formation” and the IC50 [2] was 37 ± 4 µM.
